Marks after values point to notes of the source that are not given here. Each block holds one compound with its values, some of them ahead of it.
Tests used:
[1] = xanthine/xanthine oxidase superoxide assay: oxidation of leuco compounds, with SOD added after sixth minute; format: biochemical; conditions: for effect of addition of SOD on rate of oxidation of the leuco compound: 5 units of SOD added after the sixth minute; for oxidation of leucomethylene blue (665 nm), rate of change of optical density / oxidation of leucothionine (605 nm), rate of change of optical density: 12.5 μM
Source text: The principle upon which the following assay is based is that the enzyme xanthine oxidase acts on xanthine to oxidise xanthine and thereby to reduce ferricytochrome C by a mechanism which, at least partly, involves superoxide. Thus, the reduction (and increase) in optical density of ferricytochrome C is dependent on superoxide as a reductant. The inclusion of superoxide dismutase (“SOD”) in the assay serves to dismutate some of the available superoxide, thus causing a decrease in the rate of reduction of ferricytochrome C. […]
Superoxide is a single electron reductant or oxidant.
To explore the effect of leucothionine and leucomethylene blue, these compounds were mixed at 12.5 μM concentration in 50 mM potassium phosphate buffer (pH 7.8) with xanthine (50 μM) and EDTA (100 μM) buttermilk xanthine oxidase (around […]) was then added to give a rate of increase in absorbance of about 0.1 optical density units (for methylene blue at 665 nm and for thionine at 605 nm) per minute at 30° C. above controls using leucothionine or leucomethylene blue, potassium phosphate buffer, xanthine and EDTA alone.

[2] = direct oxidation of leuco compounds by potassium superoxide; format: biochemical; conditions: for final optical density leucomethylene blue (665 nm) / direct oxidation of the leuco compound by potassium superoxide / final optical density leucothionine (605 nm): approximately 10 μM, pH 7.8; for final optical density leucomethylene blue (665 nm) / final optical density leucothionine (605 nm): potassium superoxide; for colour change of the cell: after potassium superoxide addition; for direct oxidation of the leuco compound by potassium superoxide: EDTA 100 μM
Method: In a further experiment, potassium superoxide was added to a reaction cell containing buffers, EDTA and concentrations of leucothionine and leucomethylene blue. Direct oxidation of the leuco compounds was observed by superoxide.
Potassium superoxide was added directly to nitrogen gassed potassium phosphate buffer (pH 7.8) containing EDTA (100 μM) and approximately 10 μM concentration of leucothionine and leucomethylene blue.
Due to the effervescence of the cell, a known property of potassium superoxide in water, no measurements were possible in the first 4 minutes of the reaction.

[3] = adrenochrome system: auto-oxidation of dl-epinephrine; format: biochemical; conditions: dl-epinephrine 500 μM, pH 10.2; for oxidation peak of Leucomethylene blue (665 nm) / effect on appearance of adrenochrome at 310 nm / oxidation peak of Leucothionine (605 nm): 50 μM; for appearance of adrenochrome (310 nm) in presence of leuco compound: leuco compound 50 μM; for appearance of adrenochrome (310 nm) in presence of leuco compound / effect on appearance of adrenochrome at 310 nm: 30° C.
Source text: In another experiment, the results of the experiment in Example 1 above were confirmed by using the adrenochrome system. In this system, dl-epinephrine is auto-oxidised under alkaline conditions by a superoxide dependent pathway. The reaction rate of this reaction can be decreased or interrupted by the addition of SOD, which scavenges superoxide. […] In this system, the rate of auto-oxidation of dl-epinephrine is decreased by the presence of either leuco compound, while the leuco compounds themselves are oxidised by superoxide in a rate dependent manner.
In this experiment, dl-epinephrine (500 μM) was allowed to auto-oxidise in 50 mM sodium carbonate buffer (pH 10.2) containing EDTA (100 μM) at 30° C. under these conditions, epinephrine is oxidised to adrenochrome (310 or 485 nm increase in absorption).

[4] = oxygen superoxide scavenging (recent research); format: biochemical; conditions: stabilised leucomethylene blue
haemoglobin = conditions: chronic toxicity studies, laboratory animals; cited from earlier work
[5] = minute 1, before SOD, pH 7.8, 30° C.
[6] = minute 2, before SOD, pH 7.8, 30° C.
[7] = minute 3, before SOD, pH 7.8, 30° C.
[8] = minute 4, before SOD, pH 7.8, 30° C.
[9] = minute 5, before SOD, pH 7.8, 30° C.
[10] = minute 6, before SOD, pH 7.8, 30° C.
[11] = minute 7, after addition of 5 units of SOD
[12] = minute 8, after addition of 5 units of SOD
[13] = minute 9, after addition of 5 units of SOD
[14] = minute 10, after addition of 5 units of SOD
[15] = minute 11, after addition of 5 units of SOD
[16] = minute 12, after addition of 5 units of SOD

- effect of addition of SOD on rate of oxidation of the leuco compound [1]: decreased the rate of oxidation
- oxidation of leucomethylene blue (665 nm), rate of change of optical density [1, 5]: 0.096
- oxidation of leucomethylene blue (665 nm), rate of change of optical density [1, 6]: 0.102
- oxidation of leucomethylene blue (665 nm), rate of change of optical density [1, 7]: 0.110
- oxidation of leucomethylene blue (665 nm), rate of change of optical density [1, 8]: 0.101
- oxidation of leucomethylene blue (665 nm), rate of change of optical density [1, 9]: 0.099
- oxidation of leucomethylene blue (665 nm), rate of change of optical density [1, 10]: 0.103
- oxidation of leucomethylene blue (665 nm), rate of change of optical density [1, 11]: 0.030 *
- oxidation of leucomethylene blue (665 nm), rate of change of optical density [1, 12]: 0.017
- oxidation of leucomethylene blue (665 nm), rate of change of optical density [1, 13]: 0.014
- oxidation of leucomethylene blue (665 nm), rate of change of optical density [1, 14]: 0.013
- oxidation of leucomethylene blue (665 nm), rate of change of optical density [1, 15]: 0.010
- oxidation of leucomethylene blue (665 nm), rate of change of optical density [1, 16]: 0.010
SMILES: CN(C)c1ccc2c(c1)Sc1cc(N(C)C)ccc1N2 [leucomethylene blue]
- final optical density leucomethylene blue (665 nm) ([2]; 0 minutes): 0.015
- final optical density leucomethylene blue (665 nm) ([2]; 5 minutes): 0.38
- final optical density leucomethylene blue (665 nm) ([2]; 6 minutes): 0.44
- final optical density leucomethylene blue (665 nm) ([2]; 7 minutes): 0.46
- final optical density leucomethylene blue (665 nm) ([2]; 8 minutes): 0.44
- colour change of the cell [2]: colourless to blue
- direct oxidation of the leuco compound by potassium superoxide [2]: rapidly oxidised to their coloured oxidised states
- oxidation peak of Leucomethylene blue (665 nm) ([3]; 0 minutes): 0.006
- appearance of adrenochrome (310 nm) in presence of leuco compound ([3]; 0 minutes): 0.005
- effect on appearance of adrenochrome at 310 nm [3]: effective in reducing the appearance of adrenochrome
- oxidation peak of Leucomethylene blue (665 nm) ([3]; 1 minute): 0.093
- appearance of adrenochrome (310 nm) in presence of leuco compound ([3]; 1 minute): 0.031
- oxidation peak of Leucomethylene blue (665 nm) ([3]; 2 minutes): 0.110
- appearance of adrenochrome (310 nm) in presence of leuco compound ([3]; 2 minutes): 0.021
- oxidation peak of Leucomethylene blue (665 nm) ([3]; 3 minutes): 0.120
- appearance of adrenochrome (310 nm) in presence of leuco compound ([3]; 3 minutes): 0.030
- oxidation peak of Leucomethylene blue (665 nm) ([3]; 4 minutes): 0.116
- appearance of adrenochrome (310 nm) in presence of leuco compound ([3]; 4 minutes): 0.035
- oxidation peak of Leucomethylene blue (665 nm) ([3]; 5 minutes): 0.121
- appearance of adrenochrome (310 nm) in presence of leuco compound ([3]; 5 minutes): 0.031
- oxidation peak of Leucomethylene blue (665 nm) ([3]; 6 minutes): 0.119
- appearance of adrenochrome (310 nm) in presence of leuco compound ([3]; 6 minutes): 0.038
- oxygen superoxide scavenging [4]: powerful oxygen superoxide scavenger

- effect of addition of SOD on rate of oxidation of the leuco compound [1]: decreased the rate of oxidation
- oxidation of leucothionine (605 nm), rate of change of optical density [1, 5]: 0.086
- oxidation of leucothionine (605 nm), rate of change of optical density [1, 6]: 0.093
- oxidation of leucothionine (605 nm), rate of change of optical density [1, 7]: 0.093
- oxidation of leucothionine (605 nm), rate of change of optical density [1, 8]: 0.095
- oxidation of leucothionine (605 nm), rate of change of optical density [1, 9]: 0.101
- oxidation of leucothionine (605 nm), rate of change of optical density [1, 10]: 0.096
- oxidation of leucothionine (605 nm), rate of change of optical density [1, 11]: 0.041 *
- oxidation of leucothionine (605 nm), rate of change of optical density [1, 12]: 0.009
- oxidation of leucothionine (605 nm), rate of change of optical density [1, 13]: 0.009
- oxidation of leucothionine (605 nm), rate of change of optical density [1, 14]: 0.011
- oxidation of leucothionine (605 nm), rate of change of optical density [1, 15]: 0.008
- oxidation of leucothionine (605 nm), rate of change of optical density [1, 16]: 0.009
SMILES: Nc1ccc2c(c1)Sc1cc(N)ccc1N2 [leucothionine]
- final optical density leucothionine (605 nm) ([2]; 0 minutes): 0.035
- final optical density leucothionine (605 nm) ([2]; 5 minutes): 0.42
- final optical density leucothionine (605 nm) ([2]; 6 minutes): 0.45
- final optical density leucothionine (605 nm) ([2]; 7 minutes): 0.45
- final optical density leucothionine (605 nm) ([2]; 8 minutes): 0.46
- colour change of the cell [2]: purple
- direct oxidation of the leuco compound by potassium superoxide [2]: rapidly oxidised to their coloured oxidised states
- oxidation peak of Leucothionine (605 nm) ([3]; 0 minutes): 0.007
- appearance of adrenochrome (310 nm) in presence of leuco compound ([3]; 0 minutes): 0.005
- effect on appearance of adrenochrome at 310 nm [3]: effective in reducing the appearance of adrenochrome
- oxidation peak of Leucothionine (605 nm) ([3]; 1 minute): 0.083
- appearance of adrenochrome (310 nm) in presence of leuco compound ([3]; 1 minute): 0.034
- oxidation peak of Leucothionine (605 nm) ([3]; 2 minutes): 0.121
- appearance of adrenochrome (310 nm) in presence of leuco compound ([3]; 2 minutes): 0.027
- oxidation peak of Leucothionine (605 nm) ([3]; 3 minutes): 0.110
- appearance of adrenochrome (310 nm) in presence of leuco compound ([3]; 3 minutes): 0.033
- oxidation peak of Leucothionine (605 nm) ([3]; 4 minutes): 0.114
- appearance of adrenochrome (310 nm) in presence of leuco compound ([3]; 4 minutes): 0.034
- oxidation peak of Leucothionine (605 nm) ([3]; 5 minutes): 0.116
- appearance of adrenochrome (310 nm) in presence of leuco compound ([3]; 5 minutes): 0.028
- oxidation peak of Leucothionine (605 nm) ([3]; 6 minutes): 0.120
- appearance of adrenochrome (310 nm) in presence of leuco compound ([3]; 6 minutes): 0.032

SMILES: CN(C)c1ccc2nc3ccc(=[N+](C)C)cc-3sc2c1 [methylene blue]
- haematological toxicity on repeated administration of high doses (haemoglobin): causes oxidation of haemoglobin to methaemoglobin and tissue accumulation of Heinz bodies
